These results are taken from PubChem BioAssay (NCI).

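Cultured in 96-well plates, cells were exposed to test compound for 48 hours across five concentrations. TGI: total growth inhibition.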 Some results are limits rather than exact numbers.

For one assay, the system named is COLO 205 colon. Put plainly: DTP human tumour cell line panel, 48 h.
For the compound `CC1(C)CCCC2OC2CCC(C)(C)C1=O` (stereo not given), the TGI (usually the concentration at which net growth stops) is greater than 100 µM.
`O=C1NCC2(CCN(CCCC3(c4ccc(F)cc4)OCCO3)CC2)N1c1ccccc1`: the TGI is greater than 100 µM.
As for `O=C(Nc1nccs1)c1c(O)nc2sccn2c1=O`, the TGI is greater than 10 µM.
Same read-out and setting: with `Cc1c(S(=O)(=O)c2ccccc2)c(N)n(CCN(C)C)c1C` the figure was greater than 100 µM; with `N=C(N)SCc1ccc2c(c1)Sc1ccccc1O2`, 17.8 µM; with `CCC1(CC)C(=O)NN(C(=O)c2ccccc2)C1=O`, greater than 100 µM.
The same measure, in the same setting: with `CS(=O)c1ncc2c(n1)-c1ccccc1OC2` (stereo not given) the figure was greater than 100 µM; with `CN(C)c1ccc(C(=N/N=C2\C(=O)Nc3ccccc32)c2ccc(N(C)C)cc2)cc1`, 3.34 µM.
`CCCC(=O)OC1CC(n2cc(F)c(=O)[nH]c2=O)OC1COP(=O)(OCC(Cl)(Cl)Cl)OCC(Cl)(Cl)Cl` (stereo not given) returned a TGI of 59 µM.
The same measure, in the same setting: with `CSC(=S)N(C)C` the figure was greater than 100 µM.
Still for that read-out and setting: for `CCN(CC)CCn1c(=O)c2cccnc2n2c3c(=O)n(C)c(=O)n(C)c3nc12` the value was greater than 100 µM; for `CCOC(=O)C1=C(C)C2C=C(c3cccs3)CC(c3ccc(Cl)cc3)=C2OC1=O` (stereo not given), greater than 100 µM.
The same measure, in the same setting: with `CN(C)c1ccc(S(=O)Nc2ccccc2)cc1` (stereo not given) the figure was 63.1 µM; with `COc1ccc2c(c1)OCC1Cc3ccccc3OC21` (stereo not given), greater than 100 µM; with `CCOC(=O)c1nc2c(nc1C(=O)OCC)C(=O)c1ccccc1C2=O`, 4.36 µM.
For `Cc1ccc(C(=C2Sc3ccccc3S2)C(=C2Sc3ccccc3S2)c2ccc(C)s2)s1`, the TGI is greater than 100 µM.
On the same count and under the same terms, for `CCCCC(C(=O)NCCNC(=O)CCC(=O)N(C)O)C(=O)NCCNC(=O)CCC(=O)N(C)O` the value was greater than 100 µM.
On the same count and under the same terms, for `C=CCSc1nnc2cc(CN3CCCC3)c(-c3ccc(Cl)cc3)nn12` the value was 34.5 µM.
Still for that read-out and setting: for `Cc1cn(C2CC(O)C(CO)O2)c(=O)[nH]c1=O` (stereo not given) the value was greater than 5000 µM.
`COc1cccc2c1OC1(C=C2)Oc2ccccc2C(=O)N1C` (stereo not given) had a TGI greater than 100 µM.
The same measure, in the same setting: for `O=[N+]([O-])c1ccc(Oc2c(Cl)cc(S(=O)(=O)/N=C(\NO)Nc3ccc(Cl)cc3)cc2Cl)cc1` the value was 29.9 µM.
Still for that read-out and setting: for `O=C(CC(C(=O)c1ccsc1)c1ccc2c(c1)OCO2)c1ccccc1` (stereo not given) the value was greater than 100 µM.
Regarding `COc1ccc(NC(=O)CC(=O)N2N=C(N3c4ccccc4Sc4ccccc43)CC2c2ccccc2)cc1` (stereo not given), the TGI is greater than 100 µM.
Still for that read-out and setting: with `CCOC(=O)c1ccc(NCC#CCN2CCOCC2)cc1` the figure was greater than 100 µM; with `Cc1cc(C(=O)CCCCOc2ccc(C3=NCCO3)cc2)c(C)n1C`, greater than 100 µM.

The test system of the next assay is DU-145 prostate. The assay can be described thus: DTP human tumour cell line panel, 48 h.
In turn, `CC1(C)CCCC2OC2CCC(C)(C)C1=O` (stereo not given) registered a TGI greater than 100 µM.
Same read-out and setting: for `O=C1NCC2(CCN(CCCC3(c4ccc(F)cc4)OCCO3)CC2)N1c1ccccc1` the value was greater than 100 µM; for `O=C(Nc1nccs1)c1c(O)nc2sccn2c1=O`, greater than 10 µM.
Same read-out and setting: for `CC1=NN(c2cccc(Cl)c2)C2(SCC(=O)N2c2nc3ccccc3s2)/C1=C\c1ccccc1O` (stereo not given) the value was 42.2 µM; for `Cc1c(S(=O)(=O)c2ccccc2)c(N)n(CCN(C)C)c1C`, greater than 100 µM; for `N=C(N)SCc1ccc2c(c1)Sc1ccccc1O2`, 28.7 µM.
Same read-out and setting: with `CCC1(CC)C(=O)NN(C(=O)c2ccccc2)C1=O` the figure was greater than 100 µM; with `CS(=O)c1ncc2c(n1)-c1ccccc1OC2` (stereo not given), greater than 100 µM.
In the case of `CN(C)c1ccc(C(=N/N=C2\C(=O)Nc3ccccc32)c2ccc(N(C)C)cc2)cc1`, the TGI was 17.5 µM. In other words, the double-digit micromolar range.
On the same count and under the same terms, for `CCCC(=O)OC1CC(n2cc(F)c(=O)[nH]c2=O)OC1COP(=O)(OCC(Cl)(Cl)Cl)OCC(Cl)(Cl)Cl` (stereo not given) the value was greater than 67.6 µM; for `CSC(=S)N(C)C`, greater than 100 µM.
As for `CCN(CC)CCn1c(=O)c2cccnc2n2c3c(=O)n(C)c(=O)n(C)c3nc12`, the TGI is greater than 100 µM.
On to `CCOC(=O)C1=C(C)C2C=C(c3cccs3)CC(c3ccc(Cl)cc3)=C2OC1=O` (stereo not given), for which the TGI is greater than 100 µM.
The same measure, in the same setting: with `CN(C)c1ccc(S(=O)Nc2ccccc2)cc1` (stereo not given) the figure was greater than 100 µM.
On the same count and under the same terms, for `COc1ccc2c(c1)OCC1Cc3ccccc3OC21` (stereo not given) the value was greater than 100 µM; for `CCOC(=O)c1nc2c(nc1C(=O)OCC)C(=O)c1ccccc1C2=O`, 2.48 µM.
For the compound `Cc1ccc(C(=C2Sc3ccccc3S2)C(=C2Sc3ccccc3S2)c2ccc(C)s2)s1`, the TGI was greater than 100 µM.
Regarding `CCCCC(C(=O)NCCNC(=O)CCC(=O)N(C)O)C(=O)NCCNC(=O)CCC(=O)N(C)O`, the total growth inhibition concentration (TGI) is greater than 100 µM.
Take `C=CCSc1nnc2cc(CN3CCCC3)c(-c3ccc(Cl)cc3)nn12`: the TGI is 43.7 µM.
On to `Cc1cn(C2CC(O)C(CO)O2)c(=O)[nH]c1=O` (stereo not given), for which the TGI was greater than 5000 µM.
The same measure, in the same setting: for `COc1cccc2c1OC1(C=C2)Oc2ccccc2C(=O)N1C` (stereo not given) the value was greater than 100 µM.
On the same count and under the same terms, for `O=[N+]([O-])c1ccc(Oc2c(Cl)cc(S(=O)(=O)/N=C(\NO)Nc3ccc(Cl)cc3)cc2Cl)cc1` the value was 29.3 µM; for `O=C(CC(C(=O)c1ccsc1)c1ccc2c(c1)OCO2)c1ccccc1` (stereo not given), greater than 100 µM; for `COc1ccc(NC(=O)CC(=O)N2N=C(N3c4ccccc4Sc4ccccc43)CC2c2ccccc2)cc1` (stereo not given), greater than 100 µM.
On to `CCOC(=O)c1ccc(NCC#CCN2CCOCC2)cc1`, for which the TGI was greater than 100 µM.
On the same count and under the same terms, for `CC1(C)C2CCC1(C)[C@H](n1c(=O)n([C@@H]3CC4CCC3(C)C4(C)C)c(=O)n([C@@H]3CC4CCC3(C)C4(C)C)c1=O)C2` the value was greater than 100 µM; for `Cc1cc(C(=O)CCCCOc2ccc(C3=NCCO3)cc2)c(C)n1C`, 79.8 µM.

Another assay concerns HL-60(TB) leukemia. The assay can be described thus: DTP human tumour cell line panel, 48 h.
For `CC1(C)CCCC2OC2CCC(C)(C)C1=O` (stereo not given), the TGI is greater than 100 µM.
Still for that read-out and setting: for `O=C1NCC2(CCN(CCCC3(c4ccc(F)cc4)OCCO3)CC2)N1c1ccccc1` the value was greater than 100 µM; for `O=C(Nc1nccs1)c1c(O)nc2sccn2c1=O`, greater than 10 µM.
On the same count and under the same terms, for `CC1=NN(c2cccc(Cl)c2)C2(SCC(=O)N2c2nc3ccccc3s2)/C1=C\c1ccccc1O` (stereo not given) the value was 52.1 µM.
The same measure, in the same setting: for `Cc1c(S(=O)(=O)c2ccccc2)c(N)n(CCN(C)C)c1C` the value was greater than 100 µM; for `N=C(N)SCc1ccc2c(c1)Sc1ccccc1O2`, greater than 63 µM.
Regarding `CCC1(CC)C(=O)NN(C(=O)c2ccccc2)C1=O`, the TGI was greater than 100 µM.
On the same count and under the same terms, for `CS(=O)c1ncc2c(n1)-c1ccccc1OC2` (stereo not given) the value was greater than 100 µM.
On the same count and under the same terms, with `CN(C)c1ccc(C(=N/N=C2\C(=O)Nc3ccccc32)c2ccc(N(C)C)cc2)cc1` the figure was 7.4 µM; with `CCCC(=O)OC1CC(n2cc(F)c(=O)[nH]c2=O)OC1COP(=O)(OCC(Cl)(Cl)Cl)OCC(Cl)(Cl)Cl` (stereo not given), 40.4 µM; with `CSC(=S)N(C)C`, greater than 100 µM.
Same read-out and setting: for `CCN(CC)CCn1c(=O)c2cccnc2n2c3c(=O)n(C)c(=O)n(C)c3nc12` the value was greater than 100 µM; for `CCOC(=O)C1=C(C)C2C=C(c3cccs3)CC(c3ccc(Cl)cc3)=C2OC1=O` (stereo not given), 31.6 µM.
